In patent US7094869B2, “Low molecular weight peptidomimetic growth hormone secretagogues” (Genentech, Inc., priority 1994, dated 2006):
Non-standard residues stand in square brackets, D forms with d. Residues, ends and D or L forms follow the SMILES beside them. *: point of attachment. Tyr(3-I) = N[C@@H](Cc1ccc(O)c(I)c1)C(=O)O; dNMe2Nal = CN[C@H](Cc1ccc2ccccc2c1)C(=O)O; 2Nal = N[C@@H](Cc1ccc2ccccc2c1)C(=O)O; d2Nal = N[C@H](Cc1ccc2ccccc2c1)C(=O)O; d(hPhe) = N[C@H](CCc1ccccc1)C(=O)O; NMeF = CN[C@@H](Cc1ccccc1)C(=O)O; dPhg = N[C@@H](C(=O)O)c1ccccc1; NHPhenethyl = c1ccc(CCN*)cc1; dNle = CCCC[C@@H](N)C(=O)O; dOrn = NCCC[C@@H](N)C(=O)O; Ac6c = NC1(C(=O)O)CCCCC1; Inp = O=C(O)C1CCNCC1; Ava = NCCCCC(=O)O

Biological target: rat pituitary cells (Rattus norvegicus, UniProt O08725)
Sequence (O08725 whole entry): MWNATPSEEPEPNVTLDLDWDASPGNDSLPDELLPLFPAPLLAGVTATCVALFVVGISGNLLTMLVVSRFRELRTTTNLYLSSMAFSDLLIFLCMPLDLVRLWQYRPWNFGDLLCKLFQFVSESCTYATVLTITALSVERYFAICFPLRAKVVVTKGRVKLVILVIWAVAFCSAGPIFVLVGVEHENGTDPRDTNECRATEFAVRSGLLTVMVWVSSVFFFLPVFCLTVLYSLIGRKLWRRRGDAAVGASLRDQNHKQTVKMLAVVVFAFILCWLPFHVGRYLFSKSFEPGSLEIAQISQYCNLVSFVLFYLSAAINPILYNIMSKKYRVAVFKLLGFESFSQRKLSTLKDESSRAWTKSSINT
Details: not given
Description: Pituitaries from ten rats were removed, the posterior pituitary discarded and the anterior pituitary placed in Hanks' Balanced Salt Solution (HBSS: without calcium chloride, w/o magnesium chloride, w/o magnesium sulfate; Gibco) containing 20 mM HEPES (Gibco) and 100 U/ml penicillin streptomycin (PS: JRH Biosciences). Under sterile conditions, pituitaries were rinsed twice then minced into small fragments with a razor blade. […] After the incubation, fragments were triturated to yield small clumps and single cells. The cells were centrifuged 1000× g for 5 min, resuspended, counted and plated at a final cell concentration of 100,000 cells/ml. Incubation media was DME low glucose media w/NaHCO3 (Gibco) containing 20 mM hepes, 100 U/ml PS and 10% FBS (Hyclone A-111-L). Cells were plated at 0.5 ml per well in 48 well plates (Falcon) and incubated at 37° C. in 5% C02 for three days. For challenges to determine release of other pituitary hormones cells were plated at 200,000 cells per ml with 2 ml per well of a Swell plate (Corning). Challenge: A (inip)bbFK-NH2 stock (or other GHRP) concentration of 1 mM was made in DMSO and diluted with warmed media approximately 30 min prior to use. The highest concentration of DMSO in media was 0.1%. Stock solutions (1 mM) of rat GHRH, somatostatin (Sigma) and GHRP antagonist HwkWfK were made fresh in media and diluted appropriately. The media used in all challenges and washing steps was DME low glucose with 20 mM Hepes, 100 U/ml PS, 10% FBS. Media was warmed to 37° C. and gassed by placing it into the incubator prior to challenge. On day three, the media was discarded and fresh media (approximately 1 ml) added for the first of three washes. After the last wash, the plate was placed back in the incubator for a 15 min pre-incubation. Then cells were washed 2× (with warmed and gassed media) and fresh 0.5 ml media were added for the second 15 min. pre-incubation. After the second pre-incubation cells were washed 2× as above and 0.5 ml of control and test solutions were added for a final 15 min incubation. After this incubation, the media were removed for subsequent GH ELISA. GH ELISA: A two-site ELISA was used to determine rat GH concentration in the media. […] After blocking and washing, standard (rat GH reference preparation: Parlow) and challenge media is diluted 1:20 prior to GH assay were added for a 1 hr room temperature incubation. STATISTICS: The mean for each group was determined and analyzed by one-way analysis of variance with a post-hoc Student-Newman-Keuls. Significance is defined as P<0.05. The EC50 was calculated using a 4-parameter curve-fit program (Kaleidagraph). Three to four independent EC50s were used to derive the mean and SEM. RIA of pituitary hormones: LH, FSH, TSH, and Prolactin were determined with commercially available kits from Amersham, and ACTH levels were determined by a RIA kit from ICN. CALCIUM FLUX EXPERIMENT: Pituitary cells were plated on fibronectin (Collaborative Research) coated two-chambered slide wells (Nunc). After four days in monolayer culture cells were rinsed three times with HBSS (Gibco) in 1% BSA and 15 mM HEPES and then incubated for 30 min at 37° C. with 5 μM Indo-1 AM (Molecular Probes, Eugene) in HBSS also containing 1% pluronic F127 (Molecular Probes). The cells were rinsed once and fresh media added for RT incubation. […] C^++ flux was imaged with a Meridian ACAS 570 using stage scanning at 21 second intervals.

Which EC50 does the source give for `NCCCC[C@H](NC(=O)[C@H](Cc1ccccc1)NC(=O)[C@@H](Cc1c[nH]c2ccccc12)NC(=O)[C@@H](Cc1c[nH]c2ccccc12)NC(=O)[C@@H](N)Cc1ccc(O)cc1)C(N)=O` [Y w w F K amide] (H-Y[dW][dW]FK-NH2) here?
Its EC50 is 1000 nM.

Which EC50 does the source give for `NC(=O)[C@H](Cc1ccccc1)NC(=O)[C@@H](Cc1c[nH]c2ccccc12)NC(=O)[C@@H](Cc1c[nH]c2ccccc12)NC(=O)[C@@H](N)Cc1ccc(O)cc1` [Y w w F amide, reference compound] (H-Y[dW][dW]F-NH2) here?
Its EC50 is 1000 nM.

Same assay, conditions: read-out: PIT Cell EC50; Table III, formula IV compounds; GH release, 15 min incubation

For `NCCCC[C@H](NC(=O)[C@H](Cc1ccccc1)NC(=O)[C@@H](Cc1ccc2ccccc2c1)NC(=O)[C@@H](Cc1ccc2ccccc2c1)NC(=O)C1CCNCC1)C(=O)N[C@@H](Cc1ccc(O)c(I)c1)C(N)=O` [(inip) b b F K Y(I) amide] (H-[Inp][d2Nal][d2Nal]FK[Tyr(3-I)]-NH2), which EC50 is on record?
Its EC50 is 0.69 nM.

For `CN(C(=O)[C@@H](Cc1c[nH]c2ccccc12)NC(=O)[C@@H](Cc1c[nH]c2ccccc12)NC(=O)[C@@H](N)Cc1c[nH]cn1)[C@@H](Cc1ccccc1)C(=O)N[C@@H](CCCCN)C(N)=O` [H w w nmF K amide] (H-H[dW][dW][NMeF]K-NH2), which EC50 is on record?
The EC50 was 37.3 nM.

Which EC50 does the source give for `C[C@H](NC(=O)[C@@H](Cc1ccc2ccccc2c1)NC(=O)[C@@H](Cc1ccc2ccccc2c1)NC(=O)CCCCN)C(=O)N[C@@H](CCCCN)C(N)=O` [(Ava) b b A K amide] (H-[Ava][d2Nal][d2Nal]AK-NH2) here?
The EC50 was over 150 nM.

`CN(C(=O)C1CCNCC1)[C@H](Cc1ccc2ccccc2c1)C(=O)N(C)[C@H](Cc1ccc2ccccc2c1)C(=O)N[C@@H](Cc1ccccc1)C(=O)N[C@@H](CCCCN)C(N)=O` [(inip) nmb nmb F K amide] (H-[Inp][dNMe2Nal][dNMe2Nal]FK-NH2) was tested. Which EC50 did it give?
The EC50 was 1.4 nM.

Which EC50 does the source give for `C[C@@H](NC(=O)CCCCN)C(=O)N[C@H](Cc1ccc2ccccc2c1)C(=O)N[C@@H](Cc1ccccc1)C(=O)N[C@@H](CCCCN)C(N)=O` [(Ava) a b F K amide] (H-[Ava][dA][d2Nal]FK-NH2) here?
Its EC50 is over 300 nM.

Which EC50 does the source give for `NCCCCC(=O)N[C@H](Cc1ccc2ccccc2c1)C(=O)N[C@H](Cc1ccc2ccccc2c1)C(=O)N[C@@H](C(=O)N[C@@H](CCCCN)C(N)=O)c1ccccc1` [(Ava) b b (pG) K amide] (H-[Ava][d2Nal][d2Nal][dPhg]K-NH2) here?
Its EC50 is over 100 nM.

`NCCCC[C@H](NC(=O)[C@H](Cc1ccc(O)cc1)NC(=O)[C@@H](Cc1ccc2ccccc2c1)NC(=O)[C@@H](Cc1ccc2ccccc2c1)NC(=O)C1CCNCC1)C(N)=O` [(inip) b b Y K amide] (H-[Inp][d2Nal][d2Nal]YK-NH2) was tested. Which EC50 did it give?
The EC50 was 0.2 nM.

Which EC50 does the source give for `CNC(=O)[C@@H](Cc1ccccc1)NC(=O)[C@@H](Cc1ccc2ccccc2c1)NC(=O)[C@@H](Cc1ccc2ccccc2c1)NC(=O)C1CCNCC1` [(inip) b b f mam] (H-[Inp][d2Nal][d2Nal][dF]-NHMe) here?
Its EC50 is 7 nM.

Same assay, conditions: read-out: PIT Cell EC50; Table IV, formula III compounds; GH release, 15 min incubation

With `CCCC[C@@H](NC(=O)[C@@H](Cc1ccc2ccccc2c1)NC(=O)C1CCNCC1)C(=O)N[C@@H](Cc1ccccc1)C(N)=O` [(inip) b nl F amide] (H-[Inp][d2Nal][dNle]F-NH2) as the molecule, how does the EC50 read?
Its EC50 is 72 nM.

For `O=C(N[C@H](Cc1ccc2ccccc2c1)C(=O)N[C@H](Cc1ccc2ccccc2c1)C(=O)NCCc1ccccc1)C1CCNCC1` [(inip) b b fem, (inip)-DβNal-DβNal-(N-2-phenylethyl) amide] (H-[Inp]-[d2Nal]-[d2Nal]-NHPhenethyl), which EC50 is on record?
The EC50 was 2.04 nM.

With `O=C(N[C@H](Cc1ccc2ccccc2c1)C(=O)N[C@H](Cc1ccc2ccccc2c1)C(=O)N[C@@H](Cc1ccc(O)c(I)c1)C(=O)O)C1CCNCC1` [(inip) b b Y(I) acid, (inip)-DβNal-DβNal-(3-I-Tyr)] (H-[Inp][d2Nal][d2Nal][Tyr(3-I)]-OH) as the molecule, how does the EC50 read?
The EC50 was 0.1 nM.

With `NC(=O)[C@H](Cc1ccccc1)NC(=O)[C@@H](Cc1ccc2ccccc2c1)NC(=O)[C@@H](CCc1ccccc1)NC(=O)C1CCNCC1` [(inip) hf b F amide] (H-[Inp][d(hPhe)][d2Nal]F-NH2) as the molecule, how does the EC50 read?
Its EC50 is 27 nM.

How did the EC50 turn out when `NC1CCN(C(=O)[C@@H](Cc2ccc3ccccc3c2)NC(=O)[C@@H](Cc2ccc3ccccc3c2)NC(=O)C2CCNCC2)CC1` [(inip) b b apc] was run?
Its EC50 is 39 nM.

How did the EC50 turn out when `NC(=O)[C@H](Cc1ccccc1)NC(=O)[C@@H](CCc1ccccc1)NC(=O)[C@@H](CCc1ccccc1)NC(=O)C1CCNCC1` [(inip) hf hf F amide] (H-[Inp][d(hPhe)][d(hPhe)]F-NH2) was run?
Its EC50 is over 1000 nM.

`NCCCCC(=O)N[C@H](Cc1ccc2ccccc2c1)C(=O)N[C@@H](Cc1ccccc1)C(=O)N[C@@H](CCCCN)C(N)=O` [(Ava) b F K amide] (H-[Ava][d2Nal]FK-NH2) was tested. Which EC50 did it give?
The EC50 was over 300 nM.

Which EC50 does the source give for `NC(=O)[C@H](Cc1ccccc1)NC(=O)C1(NC(=O)[C@@H](Cc2ccc3ccccc3c2)NC(=O)C2CCNCC2)CCCCC1` [(inip) b Abx F amide] (H-[Inp][d2Nal][Ac6c]F-NH2) here?
The EC50 was over 100 nM.

Which EC50 does the source give for `NCCC[C@@H](NC(=O)[C@@H](Cc1ccc2ccccc2c1)NC(=O)[C@@H](Cc1ccc2ccccc2c1)NC(=O)C1CCNCC1)C(N)=O` [(inip) b b o amide] (H-[Inp][d2Nal][d2Nal][dOrn]-NH2) here?
Its EC50 is 10 nM.

How did the EC50 turn out when `NCCCCC(=O)N[C@H](Cc1ccc2ccccc2c1)C(=O)N[C@H](Cc1ccc2ccccc2c1)C(=O)NCCc1ccccc1` [(Ava) b b fem] (H-[Ava]-[d2Nal]-[d2Nal]-NHPhenethyl) was run?
The EC50 was over 200 nM.

Which EC50 does the source give for `CCCC[C@@H](NC(=O)C1CCNCC1)C(=O)N[C@H](Cc1ccc2ccccc2c1)C(=O)N[C@@H](Cc1ccccc1)C(N)=O` [(inip) nl b F amide] (H-[Inp][dNle][d2Nal]F-NH2) here?
The EC50 was 101 nM.

How did the EC50 turn out when `NCCCCCNC(=O)[C@@H](Cc1ccc2ccccc2c1)NC(=O)[C@@H](Cc1ccc2ccccc2c1)NC(=O)C1CCNCC1` [(inip) b b pam] was run?
The EC50 was 43 nM.

How did the EC50 turn out when `NC(=O)[C@H](Cc1ccccc1)NC(=O)[C@@H](Cc1ccccc1)NC(=O)[C@@H](Cc1ccc2ccccc2c1)NC(=O)C1CCNCC1` [(inip) b f F amide] (H-[Inp][d2Nal][dF]F-NH2) was run?
Its EC50 is 79 nM.

Same assay, conditions: read-out: PIT Cell EC50; Table V, formula II compounds; GH release, 15 min incubation

`CN(C(=O)[C@@H](Cc1ccc2ccccc2c1)NC(=O)C1CCNCC1)[C@@H](CN=[N+]=[N-])Cc1ccc2ccccc2c1` [(inip) b miz] was tested. Which EC50 did it give?
The EC50 was 12 nM.

How did the EC50 turn out when `NCCCCC(=O)N[C@H](Cc1ccc2ccccc2c1)C(=O)N[C@@H](CO)Cc1ccc2ccccc2c1` [(Ava) b bol] was run?
The EC50 was 190 nM.

For `NC(=O)[C@@H](Cc1ccc2ccccc2c1)NC(=O)[C@@H](Cc1ccc2ccccc2c1)NC(=O)C1CCNCC1` [(inip) b b amide] (H-[Inp]-[d2Nal]-[d2Nal]-NH2), which EC50 is on record?
The EC50 was 17.6 nM.

With `CC(=O)NC[C@@H](Cc1ccc2ccccc2c1)N(C)C(=O)[C@@H](Cc1ccc2ccccc2c1)NC(=O)C1CCNCC1` [(inip) b mbm Ac] as the molecule, how does the EC50 read?
Its EC50 is 90 nM.

Same assay, conditions: read-out: PIT Cell EC50; Table VI, retroinverso compounds of formula V; GH release, 15 min incubation

Which EC50 does the source give for `NCCCCC(=O)N[C@H](Cc1ccccc1)C(=O)N[C@@H](Cc1ccc2ccccc2c1)C(=O)N[C@@H](Cc1ccc2ccccc2c1)C(=O)N[C@@H](CCCCN)C(N)=O` [(Ava) f B B K amide, (5-Aminovaleryl)-DPhe-βNal-βNal-Lys-amide] (H-[Ava][dF][2Nal][2Nal]K-NH2) here?
The EC50 was 36 nM.

With `O=C(N[C@@H](Cc1ccc2ccccc2c1)C(=O)N[C@@H](Cc1ccc2ccccc2c1)C(=O)NC1CCNCC1)C1CCNCC1` [(inip) B B api] as the molecule, how does the EC50 read?
Its EC50 is 96 nM.

Same assay, conditions: read-out: mean EC50; mean ± SE of independent EC50s

How did the EC50 turn out when `NCCCNC(=O)[C@H](Cc1ccc2ccccc2c1)NC(=O)[C@H](Cc1ccc2ccccc2c1)NC(=O)[C@@H](Cc1ccc2ccccc2c1)NC(=O)CCCN` [(Ab) b B B ram] was run?
The EC50 was 2 nM.

Same assay, conditions: read-out: “Pit” Cell EC50; Table II, prior art compounds; GH release, 15 min incubation

`C[C@H](N)C(=O)N[C@@H](Cc1c[nH]cn1)C(=O)N[C@H](Cc1ccc2ccccc2c1)C(=O)N[C@@H](C)C(=O)N[C@@H](Cc1c[nH]c2ccccc12)C(=O)N[C@H](Cc1ccccc1)C(=O)N[C@@H](CCCCN)C(N)=O` [GHRP 1, Ala-His-D βNal-Ala-Trp-D Phe-Lys-NH2, reference compound] (H-AH[d2Nal]AW[dF]K-NH2) was tested. Which EC50 did it give?
Its EC50 is 1.4 nM.
